In patent US8354400B2, “Benzoxazole compounds and methods of use” (Eisai R&D Co., Ltd., priority 2008, dated 2013):
Entries after “also recorded” stand apart in the source; their conditions may differ.

Key:
Format in all cases: in vivo
[1] = tested on: MOGp35-55-induced EAE in C57BL/6J mice; experiment: Experimental autoimmune encephalitis (EAE) multiple sclerosis model
Method: Experimental autoimmune encephalitis (EAE) is an induced autoimmunity in mice that mimics human multiple sclerosis, including autoantibody and cellular responses targeted against central nervous system antigens. To induce EAE, groups of 8 male C57BL/6J mice (Jackson Laboratories) were immunized subcutaneously on day 0 with the synthetic peptide MOGp35-55 (Becher et al. J. Clin. Invest. 112:1186-1191 (2003)), with amino acid sequence […] (SEQ ID NO:4) at a dose of 200 μg/mouse in complete Freund's adjuvant (CFA). At the same time the animals received pertussis toxin, i.p. at 30 ng/mouse. On day 2 the pertussis injection was repeated. On day 7 the mice were boosted with MOGp35-55, 200 μg/mouse in incomplete Freund's. Beginning on day 9 the mice were dosed daily by oral gavage with Compound 23 in water at 20 mg/kg or 60 mg/kg. Symptoms were scored by observing degree and location of paralysis of the tail and limbs, the average score for each group of 8 mice is shown.

[2] = tested on: MRL/MpJ-faslpr/J mice (MRL/lpr); experiment: MRL/MpJ-faslpr/J spontaneous lupus model, Experiment 1
Method: In this experiment, MRL/MpJ-faslpr/J mice (“MRL/lpr”) obtained from Jackson Laboratories were dosed orally with Compound 23 at 20 or 60 mg/kg in water. MRL/lpr mice have a defect in lymphocyte death and spontaneously develop autoantibodies including the anti-nuclear antibodies found in human systemic lupus erythematosus (SLE). Dosing was performed daily five days a week beginning at 5 weeks of age. Blood and urine samples were taken prior to dosing on day one and every three to four weeks thereafter. An ELISA assay was used to measure serum anti-dsDNA before and after 7 weeks of dosing. The assay was conducted using a Mouse Anti-dsDNA Total Ig Qualitative ELISA kit (Alpha Diagnostic International, San Antonio. TX).
Anti-nuclear antibodies (“ANA”) in this experiment were also examined by exposing fixed […] cells, obtained as fixed samples on slides from Antibodies Inc., to diluted serum from the mice dosed with Compound 23 at 20 or 60 mg/kg, as described above, and staining for mouse immunoglobulin using the kit reagents supplied by Antibodies Inc. according to the kit instructions. Intensity of fluorescent staining was then read by microscope, and scores were assigned values between − and +++. Sample identifications were blinded for data collection.

MRL/lpr mice = experiment: MRL/lpr spontaneous lupus model, Experiment 2; conditions: 12 weeks, high dose (60 mg/kg p.o.)
Method: In this SLE experiment, dosing, groups were as described in Table 4 below. Two dose levels of Compound 23 were compared to HCQ and cyclophosphamide (Cytoxan®). HCQ and cyclophosphamide are currently used in the treatment of cutaneous and systemic lupus, respectively. […] Sera were assayed at a 1:600 dilution in PBS. (Mouse Anti-dsDNA Total Ig Qualitative ELISA kits, Alpha Diagnostic International). Dosing was conducted by either oral (p.o.) or intraperitoneal (i.p.) administration.

[3] = tested on: collagen induced arthritis in male DBA/1J mice; experiment: Type II collagen induced arthritis model; conditions: 5 days per week from day 9
Method: The type II collagen induced arthritis model was used for the purpose of in vivo evaluation of Compound 2 for the treatment of arthritis. In this model, arthritis was induced in male DBA/1J (Jackson Labs) mice using complete Freund's adjuvant. A first priming/immunization dose of 300 μg of bovine type II collagen emulsified in an equal volume of complete Freund's adjuvant is injected subcutaneously (s.c.) at least 5 mm from the base of the tail.
Starting on day 9 after immunization and each day for 5 days per week thereafter, each mouse was dosed orally with 6 mg/kg, 20 mg/kg, or 60 mg/kg of Compound 2 or placebo 5 days per week.
A second immunization dose was administered 21 days after the first immunization by s.c. injection above the first immunization site of 200 μg of bovine type II collagen emulsified in an equal volume of incomplete Freund's adjuvant. To further promote arthritis progression, animals receive an intraperitoneal injection of lipopolysaccharide (LPS) (1 μg/mouse in PBS) three days after the second immunization.
At 21, 25, 28, and 31 days after the first immunization dose, the animals were examined for evidence of paw swelling and assigned an arthritis score at each time point.

Row | SMILES | MOG-induced EAE symptom score compared to control mice ([1]; 20 mg/kg oral gavage daily from day 9) | MOG-induced EAE symptom score ([1]; 60 mg/kg oral gavage daily from day 9) | serum anti-dsDNA, mean OD450 versus vehicle ([2]; MRL/lpr mice, 10 weeks of dosing) | serum anti-dsDNA versus vehicle ([2]; MRL/lpr mice, 12 weeks and beyond) | dosage-related toxicity (general appearance, body weight) ([2]; MRL/lpr mice, 20 or 60 mg/kg oral) | serum anti-dsDNA, mean OD450 versus vehicle ([2]; MRL/lpr mice, 20 or 60 mg/kg oral, 7 weeks of dosing) | anti-nuclear antibody (ANA) development ([2]; MRL/lpr mice, 20 or 60 mg/kg oral, 4, 10, 12 weeks of dosing) | anti-dsDNA in the MRL/lpr model of SLE (summary) ([2]; daily oral dosing with 60 and 20 mg/kg) | difference in mean dsDNA level between vehicle and compound (MRL/lpr mice) | paw swelling (arthritis score) ([3]; 60 mg/kg oral) | paw swelling (arthritis score) ([3]; 6 and 20 mg/kg oral)
1 | c1cc(-c2nc3ccc(OCCCN4CCCC4)cc3o2)ccc1OCCCN1CCCC1 [Compound 23] | suppressed significantly | suppressed further | statistical difference was still observed | more similar to vehicle-treated animals | No evidence of dosage-related toxicity | statistically significant suppression | dose-dependent suppression of ANA development; also recorded: dose-dependent inhibition | suppression of anti-dsDNA | statistically significant difference | – | –
2 | CN(C)CCCOc1ccc(-c2nc3ccc(OCCCN(C)C)cc3o2)cc1 [Compound 2] | – | – | – | – | – | – | – | – | – | not clear | Suppression of paw swelling
